Calls of active or inactive are those of the source.
Columns and labels:
Bcl-2-related protein A1 [1] = biological target: T1, Bcl-2-related protein A1 (Mus musculus, UniProt Q07440); assay: Bfl-1 inhibitors blocking BH3 peptide binding, confirmation, biochemical, TR-FRET, mouse Bfl-1 (AID 621);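 note: TR-FRET binding of GST-Bfl-1 to FITC-labelled Bid peptide via terbium antibody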
T1 sequence (Q07440 whole entry): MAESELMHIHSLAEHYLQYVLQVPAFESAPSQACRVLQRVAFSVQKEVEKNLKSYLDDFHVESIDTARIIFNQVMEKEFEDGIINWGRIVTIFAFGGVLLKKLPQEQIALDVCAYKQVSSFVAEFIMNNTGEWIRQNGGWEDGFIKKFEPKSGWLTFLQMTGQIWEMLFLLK

Bcl-2-related protein A1 [2] = biological target: T1, Bcl-2-related protein A1; assay: Bfl-1 binding inhibitors, SAR follow-up, biochemical, fluorescence polarization (AID 1070)
[3] = biological target: Voltage-gated inwardly rectifying potassium channel KCNH2 (Homo sapiens, UniProt Q12809); assay: hERG protection from proarrhythmic block, potency, dose response, cell-based, thallium flux (AID 2121); assay type: ADME
Fatty acid synthase = Fatty acid synthase (Homo sapiens, UniProt P49327); assay: FAS thioesterase domain inhibitors, dose response, biochemical, kinetic fluorescence intensity (AID 624326); assay type: functional;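 note: rate of fluorescence rise from hydrolysis of a fluorogenic O-methyl fluorescein ester substrate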
[4] = inhibitors of intracellular T. cruzi replication, confirmation, NIH3T3 host cells, beta-gal luminescence (AID 2044); assay type: functional, cell-based;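 note: intracellular parasites grown in NIH/3T3 mouse fibroblasts as host cells; luminescent beta-galactosidase reporter signal from transgenic T. cruzi replicating inside host cells; inhibitors lower the luminescence signal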
[5] = cytotoxicity toward NIH3T3 fibroblasts, dose response, counter-screen, cell-based, ATP luminescence, mouse fibroblasts (AID 2010); assay type: functional;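 note: cells exposed to compound for about 90 hours before reading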
[6] = biological target: T2, Mannose-6-phosphate isomerase (Homo sapiens, UniProt P34949); assay: human PMI inhibitors, high substrate, primary screen, biochemical, fluorescence intensity, high mannose 6-phosphate (AID 1220)
T2 sequence (P34949 whole entry): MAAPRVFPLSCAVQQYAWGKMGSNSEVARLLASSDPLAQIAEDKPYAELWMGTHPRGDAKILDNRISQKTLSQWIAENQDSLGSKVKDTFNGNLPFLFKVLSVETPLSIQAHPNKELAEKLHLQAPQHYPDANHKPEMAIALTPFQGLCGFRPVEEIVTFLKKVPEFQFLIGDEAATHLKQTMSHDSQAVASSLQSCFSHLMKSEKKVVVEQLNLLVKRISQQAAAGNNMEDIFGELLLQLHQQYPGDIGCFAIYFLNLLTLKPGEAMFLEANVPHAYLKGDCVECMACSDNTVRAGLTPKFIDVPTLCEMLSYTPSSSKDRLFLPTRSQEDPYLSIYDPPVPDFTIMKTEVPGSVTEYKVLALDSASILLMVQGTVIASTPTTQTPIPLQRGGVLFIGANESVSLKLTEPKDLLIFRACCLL

[7] = biological target: T3, Heat shock factor protein 1 (Mus musculus, UniProt P38532); assay: HSF1 potentiators in luciferase reporter cells, confirmation, cell-based, NIH3T3, luminescence, dose retest (AID 435004); assay type: functional;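 note: stress induced by proteasome inhibitor MG132 added 30 min after compound; luciferase reporter driven by HSF1 response element in NIH3T3 cells; actives raise luminescence as potentiators of the MG132 stress response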
T3 sequence (P38532 whole entry): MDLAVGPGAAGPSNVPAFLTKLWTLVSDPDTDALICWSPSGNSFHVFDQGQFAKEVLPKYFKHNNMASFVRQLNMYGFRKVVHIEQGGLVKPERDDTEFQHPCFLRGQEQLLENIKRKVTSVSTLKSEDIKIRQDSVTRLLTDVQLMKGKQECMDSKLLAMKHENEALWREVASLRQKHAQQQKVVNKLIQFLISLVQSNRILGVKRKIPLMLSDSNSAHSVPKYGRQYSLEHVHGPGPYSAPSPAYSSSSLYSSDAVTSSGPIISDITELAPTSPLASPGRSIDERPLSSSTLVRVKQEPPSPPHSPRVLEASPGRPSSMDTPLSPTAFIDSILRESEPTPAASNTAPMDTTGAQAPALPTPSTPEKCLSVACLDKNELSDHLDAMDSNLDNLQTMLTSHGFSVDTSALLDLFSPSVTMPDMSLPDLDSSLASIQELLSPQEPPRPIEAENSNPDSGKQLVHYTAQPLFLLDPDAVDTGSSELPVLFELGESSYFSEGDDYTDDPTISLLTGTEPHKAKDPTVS

[8] = biological target: T4, Replicative DNA helicase DnaB (Mycobacterium tuberculosis, UniProt P9WMR3); assay: DnaB intein splicing inhibitors, dose response, biochemical, cell-free fluorescence (AID 449749); assay type: functional
T4 sequence (P9WMR3 whole entry): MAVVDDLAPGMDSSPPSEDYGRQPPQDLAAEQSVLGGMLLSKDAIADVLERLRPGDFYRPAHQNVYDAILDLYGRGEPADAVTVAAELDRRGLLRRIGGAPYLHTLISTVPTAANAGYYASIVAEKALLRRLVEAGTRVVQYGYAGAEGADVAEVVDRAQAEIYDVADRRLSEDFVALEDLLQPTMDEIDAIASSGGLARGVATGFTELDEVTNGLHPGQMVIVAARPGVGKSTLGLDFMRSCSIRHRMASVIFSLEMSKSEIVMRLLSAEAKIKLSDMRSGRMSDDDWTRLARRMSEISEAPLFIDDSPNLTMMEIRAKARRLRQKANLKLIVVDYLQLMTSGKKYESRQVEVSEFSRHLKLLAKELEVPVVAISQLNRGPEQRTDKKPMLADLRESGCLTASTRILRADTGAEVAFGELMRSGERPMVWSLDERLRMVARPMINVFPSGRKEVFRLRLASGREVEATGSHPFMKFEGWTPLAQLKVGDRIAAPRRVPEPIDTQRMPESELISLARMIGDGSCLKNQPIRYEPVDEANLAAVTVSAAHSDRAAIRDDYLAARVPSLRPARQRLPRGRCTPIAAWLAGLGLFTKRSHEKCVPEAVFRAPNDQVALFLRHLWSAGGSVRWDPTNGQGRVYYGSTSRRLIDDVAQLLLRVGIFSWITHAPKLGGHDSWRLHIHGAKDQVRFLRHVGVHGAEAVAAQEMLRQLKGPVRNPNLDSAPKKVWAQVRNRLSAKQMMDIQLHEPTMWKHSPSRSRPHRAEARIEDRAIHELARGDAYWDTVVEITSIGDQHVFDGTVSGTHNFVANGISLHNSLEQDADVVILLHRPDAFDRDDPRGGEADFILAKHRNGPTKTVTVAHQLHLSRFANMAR

Vero = Vero cell cytotoxicity, cytotoxicity control for flavivirus capping enzyme inhibitors (AID 588742); assay type: functional; details: Chlorocebus sabaeus
Protein RecA = biological target: T5, Protein RecA (Mycobacterium tuberculosis, UniProt P9WHJ3); assay: Fluorescence Cell-Free Homogeneous Dose Retest to Identify Inhibitors of RecA-Intein Splicing Activity. [Related pubchem assays (depositor defined):AID2097, AID2223, AID489010, AID492950]; assay type: functional
T5 sequence (P9WHJ3 whole entry): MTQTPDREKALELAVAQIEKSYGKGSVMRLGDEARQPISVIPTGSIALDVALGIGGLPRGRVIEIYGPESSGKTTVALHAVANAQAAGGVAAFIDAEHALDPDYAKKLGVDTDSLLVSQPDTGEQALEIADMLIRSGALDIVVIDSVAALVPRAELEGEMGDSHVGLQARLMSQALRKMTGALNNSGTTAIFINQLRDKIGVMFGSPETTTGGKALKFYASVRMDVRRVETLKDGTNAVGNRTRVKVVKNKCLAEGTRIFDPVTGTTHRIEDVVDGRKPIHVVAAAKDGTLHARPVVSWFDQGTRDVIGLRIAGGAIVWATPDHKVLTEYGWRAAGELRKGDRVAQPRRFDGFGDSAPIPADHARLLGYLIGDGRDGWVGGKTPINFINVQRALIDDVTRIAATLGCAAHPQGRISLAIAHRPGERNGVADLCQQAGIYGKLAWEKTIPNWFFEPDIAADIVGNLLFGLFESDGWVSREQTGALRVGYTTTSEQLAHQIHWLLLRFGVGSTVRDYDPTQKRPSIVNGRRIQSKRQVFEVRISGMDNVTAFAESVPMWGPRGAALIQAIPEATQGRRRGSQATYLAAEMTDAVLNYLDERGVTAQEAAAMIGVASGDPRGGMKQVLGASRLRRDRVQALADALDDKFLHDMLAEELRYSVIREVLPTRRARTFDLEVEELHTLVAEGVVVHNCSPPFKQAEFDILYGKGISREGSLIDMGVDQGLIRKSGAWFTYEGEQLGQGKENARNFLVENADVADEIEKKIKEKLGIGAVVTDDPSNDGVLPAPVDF

Genome polyprotein = Genome polyprotein (dengue virus type 2, UniProt P29990); assay: Dengue-2 NS5 methyltransferase inhibitors, primary screen, biochemical, confirmation dose response (AID 588689); assay type: functional
[9] = biological target: T6, Rac GTPase-activating protein 1 (Homo sapiens, UniProt Q9H0H5); assay: MgcRacGAP GTPase-activating activity inhibitors, confirmation, biochemical, ADP Hunter fluorescence, primary and confirmatory (AID 624330); assay type: functional
T6 sequence (Q9H0H5 whole entry): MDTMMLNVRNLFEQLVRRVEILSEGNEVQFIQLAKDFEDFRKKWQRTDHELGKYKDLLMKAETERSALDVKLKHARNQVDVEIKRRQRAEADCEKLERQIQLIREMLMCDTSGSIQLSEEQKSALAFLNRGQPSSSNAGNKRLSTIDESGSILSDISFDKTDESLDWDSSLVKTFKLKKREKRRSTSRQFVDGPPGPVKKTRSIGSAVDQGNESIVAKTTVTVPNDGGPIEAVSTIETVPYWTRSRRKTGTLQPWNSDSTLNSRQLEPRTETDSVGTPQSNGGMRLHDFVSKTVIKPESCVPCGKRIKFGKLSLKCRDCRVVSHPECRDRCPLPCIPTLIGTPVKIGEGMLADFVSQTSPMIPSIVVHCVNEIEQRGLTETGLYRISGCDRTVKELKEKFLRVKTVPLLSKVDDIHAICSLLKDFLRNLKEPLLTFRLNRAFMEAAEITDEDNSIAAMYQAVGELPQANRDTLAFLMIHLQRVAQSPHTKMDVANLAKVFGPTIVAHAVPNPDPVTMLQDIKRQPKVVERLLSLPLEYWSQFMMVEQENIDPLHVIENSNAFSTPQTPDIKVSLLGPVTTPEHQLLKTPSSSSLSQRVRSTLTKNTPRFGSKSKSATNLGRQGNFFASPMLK

[10] = biological target: T7, Tyrosine-protein phosphatase non-receptor type 7 (Homo sapiens, UniProt P35236); assay: inhibitors of human HePTP phosphatase, […], biochemical, absorbance, leukemia target (AID 521); assay type: functional
T7 sequence (P35236 whole entry): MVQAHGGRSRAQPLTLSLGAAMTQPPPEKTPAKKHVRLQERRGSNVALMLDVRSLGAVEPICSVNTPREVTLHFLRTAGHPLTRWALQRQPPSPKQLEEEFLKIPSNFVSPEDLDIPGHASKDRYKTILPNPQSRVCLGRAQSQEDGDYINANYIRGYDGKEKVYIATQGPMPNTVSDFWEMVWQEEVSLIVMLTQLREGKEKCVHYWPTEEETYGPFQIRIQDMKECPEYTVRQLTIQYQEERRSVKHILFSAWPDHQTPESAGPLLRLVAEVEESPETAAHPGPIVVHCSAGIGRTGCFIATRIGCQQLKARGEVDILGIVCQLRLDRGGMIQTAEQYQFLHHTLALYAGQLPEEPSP

[11] = biological target: Glyceraldehyde-3-phosphate dehydrogenase (Homo sapiens, UniProt P04406)
Sequence of Glyceraldehyde-3-phosphate dehydrogenase (P04406 whole entry): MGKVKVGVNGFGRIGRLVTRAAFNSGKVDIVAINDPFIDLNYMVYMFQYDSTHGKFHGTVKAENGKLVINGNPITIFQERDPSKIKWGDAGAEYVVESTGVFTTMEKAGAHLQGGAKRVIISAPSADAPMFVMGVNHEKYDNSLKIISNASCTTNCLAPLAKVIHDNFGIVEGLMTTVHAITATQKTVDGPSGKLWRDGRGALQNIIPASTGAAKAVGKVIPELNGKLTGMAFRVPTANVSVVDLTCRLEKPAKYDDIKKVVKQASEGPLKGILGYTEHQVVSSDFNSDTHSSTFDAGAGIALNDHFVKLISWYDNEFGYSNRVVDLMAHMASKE

Sequence of Voltage-gated inwardly rectifying potassium channel KCNH2 (Q12809 whole entry, the tested form may be a part): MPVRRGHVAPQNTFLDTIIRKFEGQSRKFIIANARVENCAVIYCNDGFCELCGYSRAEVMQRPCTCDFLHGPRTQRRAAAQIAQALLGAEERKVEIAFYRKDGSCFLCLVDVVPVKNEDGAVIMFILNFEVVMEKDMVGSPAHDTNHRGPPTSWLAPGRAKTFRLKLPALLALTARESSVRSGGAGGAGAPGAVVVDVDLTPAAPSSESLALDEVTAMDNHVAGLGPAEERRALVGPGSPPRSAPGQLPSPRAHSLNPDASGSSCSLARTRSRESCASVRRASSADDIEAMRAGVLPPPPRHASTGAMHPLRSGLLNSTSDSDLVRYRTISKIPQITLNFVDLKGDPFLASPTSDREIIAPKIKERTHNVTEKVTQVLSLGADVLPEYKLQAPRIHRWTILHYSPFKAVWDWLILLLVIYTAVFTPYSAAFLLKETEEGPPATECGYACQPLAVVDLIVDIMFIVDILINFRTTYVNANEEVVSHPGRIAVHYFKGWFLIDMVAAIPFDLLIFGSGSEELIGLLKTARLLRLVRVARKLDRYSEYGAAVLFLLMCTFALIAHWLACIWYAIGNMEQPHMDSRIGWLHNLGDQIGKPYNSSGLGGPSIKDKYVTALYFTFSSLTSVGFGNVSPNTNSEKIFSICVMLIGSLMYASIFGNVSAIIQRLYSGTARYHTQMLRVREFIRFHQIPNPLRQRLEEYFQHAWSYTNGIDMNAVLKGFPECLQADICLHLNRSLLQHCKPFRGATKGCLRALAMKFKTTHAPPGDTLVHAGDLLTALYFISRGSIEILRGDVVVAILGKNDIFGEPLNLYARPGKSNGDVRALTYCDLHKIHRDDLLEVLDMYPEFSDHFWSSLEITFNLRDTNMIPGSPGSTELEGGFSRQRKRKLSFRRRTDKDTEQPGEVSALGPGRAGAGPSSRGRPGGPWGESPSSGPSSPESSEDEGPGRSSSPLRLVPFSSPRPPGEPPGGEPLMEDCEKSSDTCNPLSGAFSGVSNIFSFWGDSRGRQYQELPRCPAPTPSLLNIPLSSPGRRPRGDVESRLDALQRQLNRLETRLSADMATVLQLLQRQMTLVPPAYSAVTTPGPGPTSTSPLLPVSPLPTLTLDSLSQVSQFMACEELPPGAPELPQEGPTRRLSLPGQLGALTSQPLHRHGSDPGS
Sequence of Fatty acid synthase (P49327 whole entry, the tested form may be a part): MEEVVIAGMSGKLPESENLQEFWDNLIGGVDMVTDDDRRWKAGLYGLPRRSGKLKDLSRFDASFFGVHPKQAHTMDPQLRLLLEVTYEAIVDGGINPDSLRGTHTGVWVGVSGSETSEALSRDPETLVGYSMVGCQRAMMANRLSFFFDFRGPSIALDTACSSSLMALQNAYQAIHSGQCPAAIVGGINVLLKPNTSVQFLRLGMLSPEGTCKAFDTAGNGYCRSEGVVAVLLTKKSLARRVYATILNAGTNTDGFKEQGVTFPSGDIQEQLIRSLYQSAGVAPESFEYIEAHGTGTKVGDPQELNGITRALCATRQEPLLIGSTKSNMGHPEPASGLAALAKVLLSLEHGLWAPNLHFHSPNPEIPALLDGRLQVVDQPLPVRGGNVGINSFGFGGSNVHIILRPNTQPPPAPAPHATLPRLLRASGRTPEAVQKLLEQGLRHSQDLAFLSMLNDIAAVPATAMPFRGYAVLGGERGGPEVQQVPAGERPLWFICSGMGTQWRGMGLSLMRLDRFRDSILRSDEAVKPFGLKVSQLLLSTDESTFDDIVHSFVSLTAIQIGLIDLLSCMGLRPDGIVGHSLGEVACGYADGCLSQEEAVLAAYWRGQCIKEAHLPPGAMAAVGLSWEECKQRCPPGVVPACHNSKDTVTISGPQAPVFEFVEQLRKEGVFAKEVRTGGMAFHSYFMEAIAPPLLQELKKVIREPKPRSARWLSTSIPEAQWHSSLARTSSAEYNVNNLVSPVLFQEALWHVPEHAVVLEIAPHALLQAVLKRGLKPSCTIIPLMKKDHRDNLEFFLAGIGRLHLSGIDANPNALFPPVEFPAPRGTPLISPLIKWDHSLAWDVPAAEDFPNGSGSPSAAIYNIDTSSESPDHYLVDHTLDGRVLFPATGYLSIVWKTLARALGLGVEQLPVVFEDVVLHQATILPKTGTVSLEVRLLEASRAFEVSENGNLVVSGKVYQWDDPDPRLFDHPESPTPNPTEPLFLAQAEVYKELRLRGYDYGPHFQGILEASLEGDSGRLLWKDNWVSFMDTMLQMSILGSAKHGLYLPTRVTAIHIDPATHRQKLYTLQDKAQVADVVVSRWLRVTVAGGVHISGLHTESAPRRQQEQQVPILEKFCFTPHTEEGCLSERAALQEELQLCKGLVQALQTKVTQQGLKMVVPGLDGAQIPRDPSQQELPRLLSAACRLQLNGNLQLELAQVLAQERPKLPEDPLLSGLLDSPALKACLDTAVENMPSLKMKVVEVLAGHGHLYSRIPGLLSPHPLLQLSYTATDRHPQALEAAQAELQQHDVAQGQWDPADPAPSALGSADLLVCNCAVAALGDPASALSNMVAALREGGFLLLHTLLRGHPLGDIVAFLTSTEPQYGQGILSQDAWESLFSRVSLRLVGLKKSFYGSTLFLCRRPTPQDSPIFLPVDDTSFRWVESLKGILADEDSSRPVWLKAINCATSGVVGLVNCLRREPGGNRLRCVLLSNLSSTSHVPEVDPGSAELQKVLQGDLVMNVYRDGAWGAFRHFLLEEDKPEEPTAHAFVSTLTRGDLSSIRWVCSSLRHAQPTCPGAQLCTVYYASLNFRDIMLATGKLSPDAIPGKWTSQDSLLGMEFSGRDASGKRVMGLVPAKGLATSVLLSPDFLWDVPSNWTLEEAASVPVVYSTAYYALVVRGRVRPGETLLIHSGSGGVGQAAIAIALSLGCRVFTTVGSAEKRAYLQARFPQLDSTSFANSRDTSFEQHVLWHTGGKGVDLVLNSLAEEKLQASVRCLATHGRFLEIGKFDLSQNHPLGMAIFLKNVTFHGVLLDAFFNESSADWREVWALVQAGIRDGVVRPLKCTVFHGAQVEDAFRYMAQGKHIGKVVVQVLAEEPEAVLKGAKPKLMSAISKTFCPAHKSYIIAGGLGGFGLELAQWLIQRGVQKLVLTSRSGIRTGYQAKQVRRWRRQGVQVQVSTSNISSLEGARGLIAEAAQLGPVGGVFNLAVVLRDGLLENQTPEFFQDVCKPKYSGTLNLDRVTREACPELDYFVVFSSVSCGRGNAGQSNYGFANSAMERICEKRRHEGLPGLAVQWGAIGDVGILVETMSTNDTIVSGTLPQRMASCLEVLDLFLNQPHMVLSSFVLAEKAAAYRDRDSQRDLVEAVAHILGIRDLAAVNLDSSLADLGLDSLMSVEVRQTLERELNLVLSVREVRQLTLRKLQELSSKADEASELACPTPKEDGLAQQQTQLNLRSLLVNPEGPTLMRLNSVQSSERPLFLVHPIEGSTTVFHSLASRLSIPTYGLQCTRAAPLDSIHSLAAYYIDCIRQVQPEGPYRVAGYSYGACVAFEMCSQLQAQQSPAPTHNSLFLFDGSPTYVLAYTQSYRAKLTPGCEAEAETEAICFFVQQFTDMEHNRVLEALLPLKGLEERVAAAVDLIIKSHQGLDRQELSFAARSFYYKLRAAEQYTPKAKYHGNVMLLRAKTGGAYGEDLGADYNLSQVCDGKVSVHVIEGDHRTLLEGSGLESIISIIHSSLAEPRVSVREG
Sequence of Genome polyprotein (P29990 2492-3391 limits assumed): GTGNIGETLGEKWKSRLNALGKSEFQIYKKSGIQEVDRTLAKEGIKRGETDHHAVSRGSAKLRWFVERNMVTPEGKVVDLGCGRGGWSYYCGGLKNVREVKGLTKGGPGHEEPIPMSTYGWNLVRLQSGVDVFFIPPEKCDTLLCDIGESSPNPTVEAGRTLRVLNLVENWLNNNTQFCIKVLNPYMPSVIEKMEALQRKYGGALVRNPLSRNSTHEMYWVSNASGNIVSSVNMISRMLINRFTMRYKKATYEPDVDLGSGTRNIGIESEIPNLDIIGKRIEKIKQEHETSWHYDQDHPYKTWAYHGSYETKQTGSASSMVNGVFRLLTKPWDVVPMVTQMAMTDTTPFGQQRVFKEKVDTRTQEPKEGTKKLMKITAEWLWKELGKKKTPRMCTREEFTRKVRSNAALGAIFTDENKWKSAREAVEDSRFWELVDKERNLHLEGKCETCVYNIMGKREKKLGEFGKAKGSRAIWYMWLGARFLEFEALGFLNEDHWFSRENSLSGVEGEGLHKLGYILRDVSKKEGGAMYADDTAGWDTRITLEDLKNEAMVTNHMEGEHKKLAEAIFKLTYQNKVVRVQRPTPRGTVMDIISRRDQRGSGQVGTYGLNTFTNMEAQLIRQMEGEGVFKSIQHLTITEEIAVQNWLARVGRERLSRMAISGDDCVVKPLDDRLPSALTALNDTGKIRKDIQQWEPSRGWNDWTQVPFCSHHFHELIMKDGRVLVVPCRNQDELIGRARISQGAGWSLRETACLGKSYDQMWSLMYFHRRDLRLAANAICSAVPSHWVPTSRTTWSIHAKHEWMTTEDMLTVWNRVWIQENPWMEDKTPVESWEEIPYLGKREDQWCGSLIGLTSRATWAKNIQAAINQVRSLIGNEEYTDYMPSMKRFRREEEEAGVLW

For Cc1ccc(-n2nnc(-c3cnc4ccccc4c3)n2)cc1, the IC50 (Bcl-2-related protein A1 [1]) was > 100 µM (not active) and the IC50 (Bcl-2-related protein A1 [2]) was > 100 µM (not active).

With Cc1cccc(N2CCN(C(=O)CNC(=O)c3cccc([N+](=O)[O-])c3)CC2)c1C the EC50 [3] was 0.38 µM (active) and the IC50 (Fatty acid synthase) was 1.51 µM (active).

In the case of FC(F)(F)c1cnc2c(c1)nc(S)n2-c1ccc(Cl)cc1, the EC50 [3] is reported as 4.84 µM (active).

With Cc1ccsc1C(=O)C1CCCN(Cc2c(C)nn(C(C)C)c2C)C1 (configuration not stated) the EC50 [4] was < 0.1 µM (active), the EC50 [5] was > 60 µM (not active) and the EC50 (cells) was 0.008 µM (active).

For COc1ccc2c(c1)-c1nc(/N=C/c3c(O)ccc4ccccc34)sc1CC2, the IC50 [6] was 13 µM (active), the EC50 [7] was > 260 µM (inactive) and the AC50 [8] was 40.8 µM (active). The CC50 (Vero) was > 40 µM (active), the EC50 (Protein RecA) was > 380 µM (inconclusive) and the IC50 (Genome polyprotein) was 6.25 µM (active). The IC50 [9] was 22.2 µM (active).

For CNC(=O)N(c1ccccc1)c1ccccc1, the IC50 [10] was > 100 µM (not active).

With CCOC(=O)N1CCN(S(=O)(=O)c2ccc(C(=O)N(CCN(C)C)c3nc4ccc(Cl)cc4s3)cc2)CC1 the EC50 [4] was < 0.1 µM (active), the EC50 [5] was > 60 µM (not active) and the EC50 (cells) was 0.07 µM (active).

With O=C1C(Cl)=C(N2CCCC2)C(=O)N1c1ccc(Cl)c(Cl)c1 the IC50 [11] was > 100 µM (not active), the IC50 (Bcl-2-related protein A1 [1]) was > 100 µM (not active) and the IC50 (Bcl-2-related protein A1 [2]) was > 100 µM (not active).

From ChEMBL document CHEMBL1201862, “PubChem BioAssay data set” (2004)
